Source: patent US6541483B2, “Acridone-derived compounds useful as antineoplastic and antiretroviral agents” (The United States of America as represented by the …, priority 1996, dated 2003)
Where two headings read alike, the source gives them in different places.

Experiments:
[1] = test system: HIV-1 LTR-directed chloramphenicol acetyltransferase (CAT) activity; experiment: LTR-directed CAT activity in BF-24 cells; assay type: cell-based; settings: 24 h, temacrazine up to 5 μM
Description: Initiation and regulation of HIV-1 transcription requires a complex series of interactions with cellular transcription factors, such as NFkB, SP-1 and AP-1, and the participation of cellular factors in the transcriptional complex. In addition, the post-integrative model used here requires TNFα stimulated U1 and ACH-2 cells, this model requires not only the participation of the NFkB transcriptional complex, and also components of the TNFα signaling pathway. In order to rule out that temacrazine was non-specifically effecting transcription or down-regulating replication by interfering with the TNFα signal pathway, LTR-directed chloramphenicol acetyltransferase (CAT) activity was measured in BF-24 cells. BF-24 cells are derived from the THP-1 monocytic cell line and carry a stably integrated CAT gene under the transcriptional control of the HIV-1 LTR (S. Schwartz, et al., Proc. Natl. Acad. Sci. USA 86:7200 (1989); B. K. Felber, et al., Science 239:184 (1988)). The LTR in this monocytic cell line is inducible by IL-6, PMA and TNFα, and produces enzymatically active chloramphenicol transferase (“CAT”). […]
CAT activity was determined using a fluorescent Bodipy conjugated chloramphenicol after 18 h of reaction with 50 μg of protein extract containing Acetyl CoA.

HIV-1 specific mRNA = experiment: Northern blotting of total HIV-1 mRNA in U-1 cells; assay type: cell-based; settings: TNFα stimulated U-1 cells
Description: To assess the possibility that temacrazine was regulating HIV-1 mRNA expression, the expression of total HIV-1 mRNA by Northern blotting was examined (FIG. 16).

HIV-1 protease [2] = molecular target: T1, HIV-1 protease (Human immunodeficiency virus type 1 group M subtype B, UniProt P04585); experiment: Pr55gag processing assay with recombinant protease; assay type: biochemical; settings: enzyme pretreated one hour at 37° C.
Protocol: However, to insure that the HPLC-based assay (used in Table 1) was providing accurate findings, the action of temacrazine in the Gag processing assay was evaluated. In this assay, purified recombinant HIV-1 protease enzyme was pretreated with the test reagent for one hour at 37° C., and then exposed the recombinant Pr55^gag precursor polyprotein to the treated enzyme.

U1 cells = experiment: viability of U1 cells; assay type: cell-based; settings: 48 h
Protocol: As a model of the late phase events during the HIV-1 replication cycle, U1 cells were used that are latently infected with two copies of HIV-1 proviral DNA. The high level expression of virus production in these U1 cells can be stimulated by certain factors, such as TNF-α. U1 cells were stimulated with TNF-α for 24 hours, after which were added various concentrations of temacrazine, and the cultures were allowed to incubate for 48 additional hours. At that time, the cells were evaluated for viability and for their content of viral protein synthesis and processing, while the cell-free supernatant was evaluated for viral p24 content and for the infectious titer of released virions. […] Cell viability was diminished above 30 nM with these U1 cells.

HIV-1 = experiment: XTT cytoprotection assay in CEM-SS cells (antiviral EC50); assay type: cell-based
Description: (§1) Briefly, the infected cells in culture are killed by the virus, and the cytotoxicity is detected by the formation of color due to the […] of a formazan dye (XTT) by enzymes released by the dying cells (Weislow et al., J. Natl. Cancer Inst. 81:577-586, 1989). An effective antiviral drug is able to protect the infected cells from cytotoxicity by inhibiting some vital function of the virus. […] FIGS. 4 and 5 show the cytoprotective activity of WMC26 and WMC42. Since many drugs can also be toxic to cells in their own right, a parallel experiment is carried out wherein uninfected cells are treated with the drugs until a concentration is reached where the cells are killed by the action of the drug.
(§2) As a result of these preliminary data, additional experiments were carried out to establish the antiviral activity in other cell lines, using a variety of protocols. The preliminary experiments in lymphocytes were confirmed using infected macrophages. Much more extensive experiments were carried out in HIV-1-infected CEM SS leukemia cells. […] However, two derivatives were found which had low antileukemic activity while maintaining high antiviral activity. […] This gives a therapeutic index of more than 3 orders of magnitude. The corresponding therapeutic index for WMC50 is about 100-200, which is quite acceptable. Additional experiments were carried out on WMC-70. […] Further, WMC-70 appears to affect post-transcription events in the virus. […] While the inhibition of integration appears to be the principal mechanism by which this compound exerts its antiviral activity, there are perhaps other mechanisms which are also involved in the therapeutic action of this drug, and by extension, of other antiviral drugs of this class.
(§3) The antiviral properties of the WMC series of compounds were evaluated. First, all compounds were tested for their ability to inhibit HIV-1 replication in cell culture using the XTT cytoprotection assay. This assay measures the concentration-dependent capacity of compounds to protect CEM-SS cells from the cytopathic effects of HIV-1. […] Thus, temacrazine was the most efficacious compound in the XTT cytoprotection assay. This conclusion was also reached when the compounds were tested for anti-HIV-1 activity against HIV-1ADA in human monocyte/macrophage cultures (Table 1).

[3] = test system: attachment of HIV-1RF to CEM-SS cells; experiment: attachment of virions to CEM-SS cells (cell-bound p24 ELISA); assay type: cell-based; settings: Human immunodeficiency virus 1, CEM-SS
Description: (§4) Based on the findings thus far our efforts have focused on biological assays of the temacrazine congener.

HIV-1ADA = experiment: anti-HIV-1 activity in monocyte/macrophage cultures; assay type: cell-based; settings: Human immunodeficiency virus 1; HIV-1ADA, human monocyte/macrophage cultures; read-out: Mo/Mφ EC50
Protocol: as §3

HIV-1 protease [4] = molecular target: T1, HIV-1 protease; experiment: protease activity, HPLC-based assay; assay type: biochemical
[5] = molecular target: p7 nucleocapsid protein zinc fingers (Human immunodeficiency virus type 1 group M subtype B, UniProt P04591); experiment: p7NC zinc finger fluorescence assays (TSQ, Trp37); assay type: biochemical, HIV-1
Description: as §4

CEM-SS cells [6] = experiment: 3H precursor incorporation in CEM-SS cells; assay type: cell-based
HIV-1 virus = experiment: direct treatment of HIV-1 virus, infection of CEM cells; assay type: cell-based
Protocol: as §2

[7] = test system: human monocyte/macrophage cultures; experiment: toxicity in monocyte/macrophage cultures; assay type: cell-based; settings: human monocyte/macrophage cultures; read-out: Mo/Mφ IC50
Protocol: as §3

CEM-SS cells [8] = experiment: XTT assay toxicity in CEM-SS cells (IC50); assay type: cell-based; settings: for IC50: Homo sapiens, CEM-SS cells
Description: as §1, §2, §3

## O=c1c2ccccc2n2nnc3ccc(NCCCN4CCN(CCCNc5ccc6nnn7c8ccccc8c(=O)c5c67)CC4)c1c32 [temacrazine]
[1]
  CAT induction by TNFα: did not significantly alter CAT induction
HIV-1 specific mRNA; 1 nM
  HIV-1 specific mRNA production: decrease in single spliced and unspliced mRNA with no apparent decrease in the multi-spliced mRNA
HIV-1 specific mRNA; 10 and 100 nM
  HIV-1 specific mRNA production: suppressed mRNA production globally
HIV-1 protease [2]
  inhibition of protease in Gag processing assay: had no inhibitory effect
U1 cells
  concentration above which cell viability was diminished: above 30 nM
HIV-1; CEM SS cells
  therapeutic index: more than 3 orders of magnitude
HIV-1; HIV-1-infected CEM SS leukemia cells
  cytoprotective activity: cytoprotective at very low concentrations
HIV-1; Human immunodeficiency virus 1, CEM-SS, read-out: EC50 (inhibits the cytotoxic effect of the virus to 50%)
  EC50: < 1 nM
HIV-1; Human immunodeficiency virus 1, CEM-SS, read-out: XTT Assay EC50
  EC50: 1.1 nM
HIV-1; Human immunodeficiency virus 1, CEM-SS cells, read-out: EC50 antiviral value, XTT cytoprotection assay
  EC50: 1.1 nM
[3]; Table 1, read-out: Attachment ID50
  IC50: > 100000 nM
[3]; Table 1A, read-out: I50 Attachment
  IC50: > 100000 nM
HIV-1ADA
  EC50: 10 nM
HIV-1 protease [4]
  inhibition of HIV protease: did not inhibit
[5]
  damage of the gag protein zinc finger: did not damage
CEM-SS cells [6]
  incorporation of 3H Leucine (protein metabolism): no effect
  incorporation of 3H Thymidine (DNA replication): no effect
CEM-SS cells [6]; CEM-SS cells
  incorporation of 3H Uridine (RNA production): no effect
HIV-1 virus
  infectivity of drug-treated HIV-1 virus: appeared to prevent its ability to infect CEM cells
[7]
  IC50: 10000 nM
CEM-SS cells [8]; CEM SS cells
  concentration at which the drug kills 50% of the cells: greater than micromolar concentrations
CEM-SS cells [8]; Table 1, read-out: XTT Assay IC50
  IC50: 2770 nM
CEM-SS cells [8]; read-out: IC50 toxicity value, XTT assay
  IC50: 2770 nM
